In US20240358841A1, “NANOMATERIALS COMPRISING TETRAVALENT LIPID COMPOUNDS” (Beam Therapeutics Inc., priority 2021, published 2024):

Legend:
[1] = LNP hydrodynamic diameter and polydispersity index by dynamic light scattering (DLS); type: physicochemical; conditions: LNP: 47.5% ionizable lipid, 40% cholesterol, 2.5% PEG-2000 DMG, 10% DPSC, N/P 4-8
Experimental: (§1) LNPs were prepared with 47.5% Ionizable Lipid (e.g., a compound provided herein): 40% cholesterol: 2.5% PEG-2000 DMG; and 10% DPSC and an N/P ratio range of 4-8. LNPs were formed by microfluidic mixing of the lipid and NA solutions using a Precision Nanosystems NanoAssemblr Spark or Benchtop series Instruments, according to the manufacturers protocol. A ratio of aqueous to organic solvent of approximately 2:1 or 3:1 was maintained during mixing using differential flow rates. After mixing, LNPs were collected, diluted in phosphate buffer saline (PBS) or Tris-buffered saline (TBS) (approximately 1:1 v/v). Further buffer exchange was conducted using dialysis in PBS or TBS at 4° C. for 4 to 24 hours against a 20 kDa filter. After this initial dialysis, each individual LNP preparation was characterized via dynamic light scattering (DLS) to measure the size (e.g., diameter) and polydispersity. LNPs falling within specific diameter and polydispersity ranges were pooled, and further dialyzed against PBS or TBS at 4° C. for 1 to 4 hours against a 100 kDa dialysis cassette. After the second dialysis, LNPs were sterile filtered using 0.22 μm filter and stored at 4° C. for further use.
LNP hydrodynamic diameter and polydispersity index (PDI) were measured using high throughput dynamic light scattering (DLS) (Stunner, Unchained Labs). LNPs were diluted 1×TBS or PBS to an appropriate concentration and analyzed.

[2] = LNP encapsulation efficiency by Ribogreen assay; type: physicochemical; conditions: LNP: 47.5% ionizable lipid, 40% cholesterol, 2.5% PEG-2000 DMG, 10% DPSC, N/P 4-8
Experimental: as §1
RNA concentration and encapsulation efficiency were determined by Ribogreen assay (BioTek Synergy LX plate reader).

Row | Mean Diameter (nm) [1] [nm] | Mean PDI [1] | Mean Encapsulation Efficiency (%) [2] [%] | SMILES
1 | 108.5 | 0.07 | 79.9 | CCCCC/C=C\CCOC(=O)CCCCCCC(=O)OCC(COC(=O)CCCCCCC(=O)OCC/C=C\CCCCC)(COC(=O)CCCCCCC(=O)OCC/C=C\CCCCC)COC(=O)NCCN1CCCC1 [Compound 7-16, 8,8′-di((Z)-non-3-en-1-yl) O′1,O1-(2-(((8-(((Z)-non-3-en-1-yl)oxy)-8-oxooctanoyl)oxy)methyl)-2-((((2-(pyrrolidin-1-yl)ethyl)carbamoyl)oxy)methyl)propane-1,3-diyl) di(octanedioate)]
2 | 119.7 | 0.11 | 71.9 | CCCCC/C=C\CCOC(=O)CCCC(=O)OCC(COC(=O)CCCC(=O)OCC/C=C\CCCCC)(COC(=O)CCCC(=O)OCC/C=C\CCCCC)COC(=O)OCCCN(CC)CC [Compound 7-37, O,O′-(2-((((3-(diethylamino)propoxy)carbonyl)oxy)methyl)-2-(((5-(((Z)-non-3-en-1-yl)oxy)-5-oxopentanoyl)oxy)methyl)propane-1,3-diyl) di((Z)-non-3-en-1-yl) diglutarate]
3 | 126.0 | 0.08 | 77.1 | CCCCC/C=C\CCOC(=O)CCCCCC(=O)OCC(COC(=O)CCCCCC(=O)OCC/C=C\CCCCC)(COC(=O)CCCCCC(=O)OCC/C=C\CCCCC)COC(=O)CCCN1CCCC1 [Compound 7-51, 7,7′-di((Z)-non-3-en-1-yl) O′1,O1-(2-(((7-(((Z)-non-3-en-1-yl)oxy)-7-oxoheptanoyl)oxy)methyl)-2-(((4-(pyrrolidin-1-yl)butanoyl)oxy)methyl)propane-1,3-diyl) di(heptanedioate)]
4 | 81.0 | 0.17 | 88.4 | CC/C=C\CCCCOC(CCC(=O)OCC(COC(=O)CCCCCCCOC(=O)C(CCCC)CCCCCC)(COC(=O)CCCCCCCOC(=O)C(CCCC)CCCCCC)COC(=O)OCCCN(CC)CC)OCCCC/C=C\CC (stereo not drawn) [Compound 7-57]
5 | 77.7 | 0.15 | 90.1 | CC/C=C\CCCCOC(CCC(=O)OCC(COC(=O)CCCCCOC(=O)C(CCCC)CCCCCC)(COC(=O)CCCCCOC(=O)C(CCCC)CCCCCC)COC(=O)OCC1CCCN(CC)C1)OCCCC/C=C\CC (stereo not drawn) [Compound 7-58, ((2-(((4,4-bis(((Z)-oct-5-en-1-yl)oxy)butanoyl)oxy)methyl)-2-(((((1-ethylpiperidin-3-yl)methoxy)carbonyl)oxy)methyl)propane-1,3-diyl)bis(oxy))bis(6-oxohexane-6,1-diyl) bis(2-butyloctanoate)]
6 | 86.6 | 0.14 | 84.6 | CC/C=C\CCCCOC(CCC(=O)OCC(COC(=O)CCCCCCCOC(=O)C(CCCC)CCCCCC)(COC(=O)CCCCCCCOC(=O)C(CCCC)CCCCCC)COC(=O)OCC1CCCN(CC)C1)OCCCC/C=C\CC (stereo not drawn) [Compound 7-60, 2-(((4,4-bis(((Z)-oct-5-en-1-yl)oxy)butanoyl)oxy)methyl)-2-(((((1-ethylpiperidin-3-yl)methoxy)carbonyl)oxy)methyl)propane-1,3-diyl bis(8-((2-butyloctanoyl)oxy)octanoate)]
7 | 76.1 | 0.17 | 88.9 | CC/C=C\CCCCOC(CCC(=O)OCC(COC(=O)CCCCCOC(=O)C(CCCC)CCCCCC)(COC(=O)CCCCCOC(=O)C(CCCC)CCCCCC)COC(=O)OCCCN(C)CC)OCCCC/C=C\CC (stereo not drawn) [Compound 7-61]
8 | 82.1 | 0.13 | 90.4 | CC/C=C\CCCCOC(CCC(=O)OCC(COC(=O)CCCCCOC(=O)C(CCCC)CCCCCC)(COC(=O)CCCCCOC(=O)C(CCCC)CCCCCC)COC(=O)NCCN1CCCC1)OCCCC/C=C\CC (stereo not drawn) [Compound 7-64, ((2-(((4,4-bis(((Z)-oct-5-en-1-yl)oxy)butanoyl)oxy)methyl)-2-((((2-(pyrrolidin-1-yl)ethyl)carbamoyl)oxy)methyl)propane-1,3-diyl)bis(oxy))bis(6-oxohexane-6,1-diyl) bis(2-butyloctanoate)]
9 | 87.5 | 0.18 | 89.5 | CC/C=C\CCCCOC(CCC(=O)OCC(COC(=O)CCCCCCC/C=C\C/C=C\CCCCC)(COC(=O)CCCCCCC/C=C\C/C=C\CCCCC)COC(=O)OCCCN(CC)CC)OCCCC/C=C\CC [Compound 7-67, 2-(((4,4-bis(((Z)-oct-5-en-1-yl)oxy)butanoyl)oxy)methyl)-2-((((3-(diethylamino)propoxy)carbonyl)oxy)methyl)propane-1,3-diyl (9Z,9′Z,12Z,12′Z)-bis(octadeca-9,12-dienoate)]

Continued, molecule first:

Row | SMILES | Mean Diameter (nm) [1] [nm] | Mean PDI [1] | Mean Encapsulation Efficiency (%) [2] [%]
10 | CC/C=C\CCCCOC(=O)CCCCCCC(=O)OCC(COC(=O)CCCCCCC(=O)OCCCC/C=C\CC)(COC(=O)CCCCCCC(=O)OCCCC/C=C\CC)COC(=O)NCCN1CCCC1 [Compound 7-18] | 153.0 | 0.08 | 38.4
11 | CCCCC/C=C\CCOC(=O)CCCCCC(=O)OCC(COC(=O)CCCCCC(=O)OCC/C=C\CCCCC)(COC(=O)CC12CC3CC(CC(C3)C1)C2)COC(=O)OCCCN(CC)CC [Compound 7-25, O′1,O1-(2-((2-((3r,5r,7r)-adamantan-1-yl)acetoxy)methyl)-2-((((3-(diethylamino)propoxy)carbonyl)oxy)methyl)propane-1,3-diyl) 7,7′-di((Z)-non-3-en-1-yl) di(heptanedioate)] | 123.1 | 0.11 | 66.9
12 | CCCCC/C=C\CCOC(=O)CCCCCC(=O)OCC(COC(=O)CCCCCC(=O)OCC/C=C\CCCCC)(COC(=O)CCCN1CCCC1)COC(=O)CC12CC3CC(CC(C3)C1)C2 [Compound 7-53, O′1,O1-(2-((2-(adamantan-1-yl)acetoxy)methyl)-2-(((4-(pyrrolidin-1-yl)butanoyl)oxy)methyl)propane-1,3-diyl) 7,7′-di((Z)-non-3-en-1-yl) di(heptanedioate)] | 157.7 | 0.08 | 43.3
13 | CC/C=C\CCCCOC(CCC(=O)OCC(COC(=O)CCCCCOC(=O)C(CCCC)CCCCCC)(COC(=O)CCCCCOC(=O)C(CCCC)CCCCCC)COC(=O)OCCCN(CC)CC)OCCCC/C=C\CC (stereo not drawn) [Compound 7-55] | 80.1 | 0.13 | 87.5
14 | CC/C=C\CCCCOC(CCC(=O)OCC(COC(=O)CCCCCCOC(=O)C(CCCC)CCCCCC)(COC(=O)CCCCCCOC(=O)C(CCCC)CCCCCC)COC(=O)OCCCN(CC)CC)OCCCC/C=C\CC (stereo not drawn) [Compound 7-56] | 78.2 | 0.11 | 88.1
15 | CC/C=C\CCCCOC(CCC(=O)OCC(COC(=O)CCCCCCOC(=O)C(CCCC)CCCCCC)(COC(=O)CCCCCCOC(=O)C(CCCC)CCCCCC)COC(=O)OCC1CCCN(CC)C1)OCCCC/C=C\CC (stereo not drawn) [Compound 7-59, ((2-(((4,4-bis(((Z)-oct-5-en-1-yl)oxy)butanoyl)oxy)methyl)-2-(((((1-ethylpiperidin-3-yl)methoxy)carbonyl)oxy)methyl)propane-1,3-diyl)bis(oxy))bis(7-oxoheptane-7,1-diyl) bis(2-butyloctanoate)] | 82.4 | 0.15 | 86.7
16 | CC/C=C\CCCCOC(CCC(=O)OCC(COC(=O)CCCCCCOC(=O)C(CCCC)CCCCCC)(COC(=O)CCCCCCOC(=O)C(CCCC)CCCCCC)COC(=O)OCCCN(C)CC)OCCCC/C=C\CC (stereo not drawn) [Compound 7-62] | 80.2 | 0.14 | 88.6
17 | CC/C=C\CCCCOC(CCC(=O)OCC(COC(=O)CCCCCCCOC(=O)C(CCCC)CCCCCC)(COC(=O)CCCCCCCOC(=O)C(CCCC)CCCCCC)COC(=O)OCCCN(C)CC)OCCCC/C=C\CC (stereo not drawn) [Compound 7-63] | 79.6 | 0.14 | 87.8
18 | CC/C=C\CCCCOC(CCC(=O)OCC(COC(=O)CCCCCCOC(=O)C(CCCC)CCCCCC)(COC(=O)CCCCCCOC(=O)C(CCCC)CCCCCC)COC(=O)NCCN1CCCC1)OCCCC/C=C\CC (stereo not drawn) [Compound 7-65, ((2-(((4,4-bis(((Z)-oct-5-en-1-yl)oxy)butanoyl)oxy)methyl)-2-((((2-(pyrrolidin-1-yl)ethyl)carbamoyl)oxy)methyl)propane-1,3-diyl)bis(oxy))bis(7-oxoheptane-7,1-diyl) bis(2-butyloctanoate)] | 82.3 | 0.15 | 89.2
19 | CC/C=C\CCCCOC(CCC(=O)OCC(COC(=O)CCCCCCCOC(=O)C(CCCC)CCCCCC)(COC(=O)CCCCCCCOC(=O)C(CCCC)CCCCCC)COC(=O)NCCN1CCCC1)OCCCC/C=C\CC (stereo not drawn) [Compound 7-66, 2-(((4,4-bis(((Z)-oct-5-en-1-yl)oxy)butanoyl)oxy)methyl)-2-((((2-(pyrrolidin-1-yl)ethyl)carbamoyl)oxy)methyl)propane-1,3-diyl bis(8-((2-butyloctanoyl)oxy)octanoate)] | 87.2 | 0.12 | 88.8
